Data from PubChem BioAssay AID2060328 (Molecular Pharmacology Branch, DTP, NCI, 2025).

Tested on: MDA-MB-231 multicell spheroids, viability (%T/C)
Assay: Anticancer human tumor MDA-MB-231 cell line growth inhibition [IpAb];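 note: viability read after seven days of drug exposure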;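 for viability, T/C: 100% = DMSO vehicle control viability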
Conditions: for IC50: curve of first compound; for viability, T/C: stronger effect = lower value
Procedure, shortened: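 Multi-cell spheroids of 60% tumour cells, 25% HUVEC and 15% MSC in ultra-low-attachment U-bottom wells, treated with agents combined with ipatasertib or abemaciclib. Half-log ranges top out near clinical Cmax, or 10 microM when Cmax is unknown.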

[1] = second compound 0.01 µM, first compound 0.0316 µM
[2] = second compound 0.01 µM, first compound 0.1 µM
[3] = second compound 0.01 µM, first compound 0.316 µM
[4] = second compound 0.01 µM, first compound 1 µM
[5] = second compound 0.01 µM, first compound 3.16 µM
[6] = second compound 0.01 µM, first compound 10 µM
[7] = second compound 0.0316 µM, first compound 0.0316 µM
[8] = second compound 0.0316 µM, first compound 0.1 µM
[9] = second compound 0.0316 µM, first compound 0.316 µM
[10] = second compound 0.0316 µM, first compound 1 µM
[11] = second compound 0.0316 µM, first compound 3.16 µM
[12] = second compound 0.0316 µM, first compound 10 µM
[13] = second compound 0.1 µM, first compound 0.0316 µM
[14] = second compound 0.1 µM, first compound 0.1 µM
[15] = second compound 0.1 µM, first compound 0.316 µM
[16] = second compound 0.1 µM, first compound 1 µM
[17] = second compound 0.1 µM, first compound 3.16 µM
[18] = second compound 0.1 µM, first compound 10 µM
[19] = second compound 0.316 µM, first compound 0.0316 µM
[20] = second compound 0.316 µM, first compound 0.1 µM
[21] = second compound 0.316 µM, first compound 0.316 µM
[22] = second compound 0.316 µM, first compound 1 µM
[23] = second compound 0.316 µM, first compound 3.16 µM
[24] = second compound 0.316 µM, first compound 10 µM
[25] = second compound 1 µM, first compound 0.0316 µM
[26] = second compound 1 µM, first compound 0.1 µM
[27] = second compound 1 µM, first compound 0.316 µM
[28] = second compound 1 µM, first compound 1 µM
[29] = second compound 1 µM, first compound 3.16 µM
[30] = second compound 1 µM, first compound 10 µM
[31] = second compound 0.01 µM, first compound 0.00949 µM
[32] = second compound 0.01 µM, first compound 0.03 µM
[33] = second compound 0.01 µM, first compound 0.0949 µM
[34] = second compound 0.01 µM, first compound 0.3 µM
[35] = second compound 0.0316 µM, first compound 0.00949 µM
[36] = second compound 0.0316 µM, first compound 0.03 µM
[37] = second compound 0.0316 µM, first compound 0.0949 µM
[38] = second compound 0.0316 µM, first compound 0.3 µM
[39] = second compound 0.1 µM, first compound 0.00949 µM
[40] = second compound 0.1 µM, first compound 0.03 µM
[41] = second compound 0.1 µM, first compound 0.0949 µM
[42] = second compound 0.1 µM, first compound 0.3 µM
[43] = second compound 0.316 µM, first compound 0.00949 µM
[44] = second compound 0.316 µM, first compound 0.03 µM
[45] = second compound 0.316 µM, first compound 0.0949 µM
[46] = second compound 0.316 µM, first compound 0.3 µM
[47] = second compound 1 µM, first compound 0.00949 µM
[48] = second compound 1 µM, first compound 0.03 µM
[49] = second compound 1 µM, first compound 0.0949 µM
[50] = second compound 1 µM, first compound 0.3 µM

In the case of `C=CC(=O)N1CCN(c2nc(=O)n(-c3c(C)ccnc3C(C)C)c3nc(-c4c(O)cccc4F)c(F)cc23)C(C)C1` (stereo not given) + CCN1CCN(Cc2ccc(Nc3ncc(F)c(-c4cc(F)c5nc(C)n(C(C)C)c5c4)n3)nc2)CC1, the IC50 (second compound 0.01 µM) is reported as greater than 10000 nM, the IC50 (second compound 0.0316 µM) is reported as greater than 10000 nM and the IC50 (second compound 0.1 µM) is reported as greater than 10000 nM. The IC50 (second compound 0.316 µM) was greater than 10000 nM, the IC50 (second compound 1 µM) was greater than 10000 nM and the viability, T/C [1] was 91.9%. It also gave a viability, T/C [2] of 93.1%, a viability, T/C [3] of 107% and a viability, T/C [4] of 120%. For the same molecule, the viability, T/C [5] was 111%, the viability, T/C [6] was 76.3% and the viability, T/C [7] was 78.5%. The viability, T/C [8] was 88.4%, the viability, T/C [9] was 89.9% and the viability, T/C [10] was 101%. It also gave a viability, T/C [11] of 92.3%, a viability, T/C [12] of 66.4% and a viability, T/C [13] of 61.3%. For the same molecule, the viability, T/C [14] was 66.2%, the viability, T/C [15] was 73.8% and the viability, T/C [16] was 84.4%. The viability, T/C [17] was 74%, the viability, T/C [18] was 59.1% and the viability, T/C [19] was 48.3%. For the same molecule, the viability, T/C [20] was 51.3%, the viability, T/C [21] was 58.6% and the viability, T/C [22] was 65.9%. The viability, T/C [23] was 60.7%, the viability, T/C [24] was 59% and the viability, T/C [25] was 50.8%. The viability, T/C [26] was 56.2%, the viability, T/C [27] was 61.1% and the viability, T/C [28] was 67.1%. For the same molecule, the viability, T/C [29] was 71.7% and the viability, T/C [30] was 61.8%.

`CC(=O)c1c(C)c2cnc(Nc3ccc(N4CCNCC4)cn3)nc2n(C2CCCC2)c1=O` + CCN1CCN(Cc2ccc(Nc3ncc(F)c(-c4cc(F)c5nc(C)n(C(C)C)c5c4)n3)nc2)CC1 gave an IC50 (second compound 0.01 µM) of 59.4 nM, an IC50 (second compound 0.0316 µM) of 44.3 nM and an IC50 (second compound 0.1 µM) of 18.1 nM. For the same molecule, the IC50 (second compound 0.316 µM) was 1.19 nM, the IC50 (second compound 1 µM) was greater than 300 nM and the viability, T/C (second compound 0.01 µM, first compound 0.000949 µM) was 87.9%. The viability, T/C (second compound 0.01 µM, first compound 0.003 µM) was 82.1%, the viability, T/C [31] was 74.1% and the viability, T/C [32] was 55.2%. The viability, T/C [33] was 46.3%, the viability, T/C [34] was 43.1% and the viability, T/C (second compound 0.0316 µM, first compound 0.000949 µM) was 71.8%. For the same molecule, the viability, T/C (second compound 0.0316 µM, first compound 0.003 µM) was 71.5%, the viability, T/C [35] was 66.8% and the viability, T/C [36] was 52.8%. The viability, T/C [37] was 44.4%, the viability, T/C [38] was 40.4% and the viability, T/C (second compound 0.1 µM, first compound 0.000949 µM) was 60%. The viability, T/C (second compound 0.1 µM, first compound 0.003 µM) was 59.2%, the viability, T/C [39] was 54% and the viability, T/C [40] was 47.1%. The viability, T/C [41] was 41%, the viability, T/C [42] was 41.8% and the viability, T/C (second compound 0.316 µM, first compound 0.000949 µM) was 49.2%. It also gave a viability, T/C (second compound 0.316 µM, first compound 0.003 µM) of 50.9%, a viability, T/C [43] of 46.2% and a viability, T/C [44] of 44.7%. The viability, T/C [45] was 44%, the viability, T/C [46] was 42% and the viability, T/C (second compound 1 µM, first compound 0.000949 µM) was 55.4%. It also gave a viability, T/C (second compound 1 µM, first compound 0.003 µM) of 58.5%, a viability, T/C [47] of 53.8% and a viability, T/C [48] of 53.4%. It also gave a viability, T/C [49] of 52.8% and a viability, T/C [50] of 48.9%.

`CC(C)(C)c1cnc(CSc2cnc(NC(=O)C3CCNCC3)s2)o1` + CCN1CCN(Cc2ccc(Nc3ncc(F)c(-c4cc(F)c5nc(C)n(C(C)C)c5c4)n3)nc2)CC1 gave an IC50 (second compound 0.01 µM) of 171 nM, an IC50 (second compound 0.0316 µM) of 148 nM and an IC50 (second compound 0.1 µM) of 120 nM. The IC50 (second compound 0.316 µM) was 33.3 nM, the IC50 (second compound 1 µM) was 36.3 nM and the viability, T/C [31] was 92.2%. For the same molecule, the viability, T/C [32] was 102%, the viability, T/C [33] was 106% and the viability, T/C [34] was 1.81%. It also gave a viability, T/C (second compound 0.01 µM, first compound 0.949 µM) of 0.77%, a viability, T/C (second compound 0.01 µM, first compound 3 µM) of 0.81% and a viability, T/C [35] of 76.8%. The viability, T/C [36] was 82.2%, the viability, T/C [37] was 83.9% and the viability, T/C [38] was 1.55%. For the same molecule, the viability, T/C (second compound 0.0316 µM, first compound 0.949 µM) was 0.68%, the viability, T/C (second compound 0.0316 µM, first compound 3 µM) was 0.85% and the viability, T/C [39] was 59.1%. The viability, T/C [40] was 63.1%, the viability, T/C [41] was 66% and the viability, T/C [42] was 1.37%. It also gave a viability, T/C (second compound 0.1 µM, first compound 0.949 µM) of 0.89%, a viability, T/C (second compound 0.1 µM, first compound 3 µM) of 1.1% and a viability, T/C [43] of 47.4%. For the same molecule, the viability, T/C [44] was 53.4%, the viability, T/C [45] was 46.1% and the viability, T/C [46] was 1.36%. The viability, T/C (second compound 0.316 µM, first compound 0.949 µM) was 0.96%, the viability, T/C (second compound 0.316 µM, first compound 3 µM) was 0.95% and the viability, T/C [47] was 52.7%. For the same molecule, the viability, T/C [48] was 53.4%, the viability, T/C [49] was 34.9% and the viability, T/C [50] was 1.87%. It also gave a viability, T/C (second compound 1 µM, first compound 0.949 µM) of 1.16% and a viability, T/C (second compound 1 µM, first compound 3 µM) of 1.42%.

Molecule `Cn1nccc1Nc1nccc(-c2ccn(C(CO)c3ccc(Cl)c(F)c3)c(=O)c2)n1` (stereo not given) + CCN1CCN(Cc2ccc(Nc3ncc(F)c(-c4cc(F)c5nc(C)n(C(C)C)c5c4)n3)nc2)CC1 has an IC50 (second compound 0.01 µM) of 106 nM, an IC50 (second compound 0.0316 µM) of less than 31.6 nM and an IC50 (second compound 0.1 µM) of less than 31.6 nM. For the same molecule, the IC50 (second compound 0.316 µM) was less than 31.6 nM, the IC50 (second compound 1 µM) was less than 31.6 nM and the viability, T/C [1] was 58%. The viability, T/C [2] was 50.2%, the viability, T/C [3] was 41.8% and the viability, T/C [4] was 37%. The viability, T/C [5] was 29.8%, the viability, T/C [6] was 21.9% and the viability, T/C [7] was 45.3%. For the same molecule, the viability, T/C [8] was 42.2%, the viability, T/C [9] was 35.6% and the viability, T/C [10] was 28.4%. It also gave a viability, T/C [11] of 24.1%, a viability, T/C [12] of 23.9% and a viability, T/C [13] of 34.8%. For the same molecule, the viability, T/C [14] was 34.1%, the viability, T/C [15] was 27.6% and the viability, T/C [16] was 24%. For the same molecule, the viability, T/C [17] was 19.9%, the viability, T/C [18] was 19.2% and the viability, T/C [19] was 29.6%. For the same molecule, the viability, T/C [20] was 27.2%, the viability, T/C [21] was 20.7% and the viability, T/C [22] was 20.6%. For the same molecule, the viability, T/C [23] was 20.2%, the viability, T/C [24] was 18.8% and the viability, T/C [25] was 30.5%. For the same molecule, the viability, T/C [26] was 25.7%, the viability, T/C [27] was 19.3% and the viability, T/C [28] was 20.7%. For the same molecule, the viability, T/C [29] was 18.6% and the viability, T/C [30] was 18.7%.
